From patent US11267797B2, “Anticancer agent” (Kyoto Pharmaceutical Industries, Ltd., priority 2014, dated 2022)
Structures can show the parent of a compound that is named as a salt.

Assay: Blood concentration after oral administration to rat or dog
Type: in vivo
Conditions: gavage to male SD rat or male beagle, suspended in 0.5% methylcellulose, 30 mg/kg or 100 mg/kg, respectively, HPLC or LC-MS/MS; for blood concentration of compound (A) after administration of the Example compound: 0.25-24 hr
Experimental: Experimental Example 2: Blood Concentration after Oral Administration to Rat or Dog
Compound (A) or Example compound suspended in 0.5% methylcellulose solution was administered by gavage to male SD rat or male beagle at a dose of 30 mg/kg or 100 mg/kg, respectively. At 0.25, 0.5, 1, 2, 4, 6 and 24 hr after administration, blood samples were collected from the cervical vein with a 1 mL syringe and was added in a 2.0 mL tube to which heparin was added. The blood was treated with acetonitrile, and the blood concentration of compound (A) was determined by using HPLC or LC-MS/MS.

Row | SMILES | blood concentration of compound (A) after administration of the Example compound | maximum blood concentration of compound (A), compared with administration of compound (A) itself
1 | COCC(C)(C)C(=O)OC(C)OC(=O)CC(=O)c1cc2c(o1)C(=O)c1ccccc1C2=O (stereo not drawn) [Example 54] | emerged in the blood over time | higher
2 | C[C@H](N)C(=O)OCCOC(=O)CC(=O)c1cc2c(o1)C(=O)c1ccccc1C2=O.Cl [Example 74] | emerged in the blood over time | higher
3 | N[C@@H](CO)C(=O)OCCOC(=O)CC(=O)c1cc2c(o1)C(=O)c1ccccc1C2=O [Example 75] | emerged in the blood over time | higher
4 | CC(OC(=O)CC(=O)c1cc2c(o1)C(=O)c1ccccc1C2=O)OC(=O)OC[C@@H](O)CO (stereo partly drawn) [Example 65] | emerged in the blood over time | higher
5 | O=C(CC(=O)c1cc2c(o1)C(=O)c1ccccc1C2=O)OCOC(=O)C(O)CO (stereo not drawn) [Example 60] | emerged in the blood over time | higher
6 | O=C(/C=C(\O)c1cc2c(o1)C(=O)c1ccccc1C2=O)OCCO [Example 13, 2-Hydroxyethyl 3-(4,9-dioxo-4,9-dihydro-naphtho[2,3-b]furan-2-yl)-3-hydroxy-acrylate Ethanolamine Salt] | emerged in the blood over time | higher
7 | COCCOC(=O)CC(=O)c1cc2c(o1)C(=O)c1ccccc1C2=O [Example 79] | emerged in the blood over time | higher
8 | CC(OC(=O)CC(=O)c1cc2c(o1)C(=O)c1ccccc1C2=O)OC(=O)OCC1COC(C)(C)O1 (stereo not drawn) [Example 66] | emerged in the blood over time | higher
9 | O=C(/C=C(\[O-])c1cc2c(o1)C(=O)c1ccccc1C2=O)OCC(O)CO.[Na+] (stereo not drawn) [Example 88] | emerged in the blood over time | higher

More lines, now with the values ahead:

Row | blood concentration of compound (A) after administration of the Example compound | maximum blood concentration of compound (A), compared with administration of compound (A) itself | SMILES
10 | emerged in the blood over time | higher | CC(C)N1CC(OC(=O)CC(=O)c2cc3c(o2)C(=O)c2ccccc2C3=O)C1.Cl [Example 114]
11 | emerged in the blood over time | higher | O=C(/C=C(\O)c1cc2c(o1)C(=O)c1ccccc1C2=O)OCCOCCO [Example 125]
12 | emerged in the blood over time | higher | O=C(/C=C(\O)c1cc2c(o1)C(=O)c1ccccc1C2=O)OCC(O)CO (stereo not drawn) [Example 95]
13 | emerged in the blood over time | higher | O=C(/C=C(\O)c1cc2c(o1)C(=O)c1ccccc1C2=O)OCCOCC(O)CO (stereo not drawn) [Example 129]
14 | emerged in the blood over time | higher | O=C(/C=C(\O)c1cc2c(o1)C(=O)c1ccccc1C2=O)OCCCO [Example 133]
15 | emerged in the blood over time | higher | CCN(CC)CC#CCOC(=O)CC(=O)c1cc2c(o1)C(=O)c1ccccc1C2=O.Cl [Example 93]
16 | emerged in the blood over time | higher | O=C(/C=C(\O)c1cc2c(o1)C(=O)c1ccccc1C2=O)OCC(CO)CO [Example 126]
17 | emerged in the blood over time | higher | Cl.O=C(CC(=O)c1cc2c(o1)C(=O)c1ccccc1C2=O)OCC#CCN1CCCC1 [Example 116]
18 | emerged in the blood over time | higher | CC(C)[C@H](N)C(=O)OCCCOC(=O)CC(=O)c1cc2c(o1)C(=O)c1ccccc1C2=O.Cl [Example 120]
